Measurements as given in patent US9695155B2, “Herbicidal substituted pyrimidinyloxy benzene compounds” (E. I. DU PONT DE NEMOURS AND COMPANY, priority 2013, dated 2017).

How the values were obtained:
Assay in all cases: Test E postemergence
sandbur = assay type: in vivo, Cenchrus echinatus; conditions: Cenchrus echinatus, post-emergence, read-out: Plant response rating, Sandbur
Outline: (§1)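 Response was scored visually on a 0-100 scale (100 = complete control) versus controls after 14 to 21 days in the greenhouse. Test chemicals, formulated with surfactant in a non-phytotoxic solvent mixture, had been applied preemergence to seeds in silt loam soil or postemergence to 1- to 4-leaf plants in potting medium.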

dayflower = assay type: in vivo, Commelina virginica; conditions: Commelina virginica, post-emergence, read-out: Plant response rating, Dayflower, VA
Outline: as §1

wild poinsettia = assay type: in vivo, Euphorbia heterophylla; conditions: Euphorbia heterophylla, post-emergence, read-out: Plant response rating, Poinsettia, Wild
Outline: as §1

waterhemp = assay type: in vivo, Amaranthus rudis; conditions: Amaranthus tuberculatus, post-emergence, read-out: Plant response rating, Waterhemp
Outline: as §1

[1] = test system: waterhemp_RES1 (ALS & Triazine resistant common waterhemp); assay type: in vivo, Amaranthus rudis
Outline: as §1

[2] = test system: waterhemp_RES2 (ALS & HPPD resistant common waterhemp); assay type: in vivo, Amaranthus rudis; conditions: Amaranthus tuberculatus, post-emergence, read-out: Plant response rating, Waterhemp_RES2
Outline: as §1

field bindweed = assay type: in vivo, Convolvulus arvensis; conditions: Convolvulus arvensis, post-emergence, read-out: Plant response rating, Field Bindweed
Outline: as §1

[3] = Postemergence, 31 g ai/ha, scale 0 to 100
[4] = Postemergence, 62 g ai/ha, scale 0 to 100
[5] = Postemergence, 125 g ai/ha, scale 0 to 100
[6] = postemergence, 16 g ai/ha, scale 0 to 100, 0 no effect, 100 complete control

`N#Cc1cccc(Oc2ncc(F)cn2)c1-n1cc(C(F)(F)F)cn1` [Compound 79, 3-[(5-fluoro-2-pyrimidinyl)oxy]-2-[4-(trifluoromethyl)-1H-pyrazol-1-yl]benzonitrile] was tested, and the pest or weed control at 31 g/ha (sandbur; [3]) was 0%, the pest or weed control at 62 g/ha (sandbur; [4]) was 0% and the pest or weed control at 125 g/ha (sandbur; [5]) was 10%. For the same molecule, the pest or weed control at 16 g/ha (sandbur; [6]) was 0%, the pest or weed control at 31 g/ha (dayflower; [3]) was 30% and the pest or weed control at 62 g/ha (dayflower; [4]) was 50%. It also gave a pest or weed control at 125 g/ha (dayflower; [5]) of 50%, a pest or weed control at 16 g/ha (dayflower; [6]) of 10% and a pest or weed control at 31 g/ha (wild poinsettia; [3]) of 40%. The pest or weed control at 62 g/ha (wild poinsettia; [4]) was 50%, the pest or weed control at 125 g/ha (wild poinsettia; [5]) was 60% and the pest or weed control at 16 g/ha (wild poinsettia; [6]) was 40%. The pest or weed control at 31 g/ha (waterhemp; [3]) was 90%, the pest or weed control at 62 g/ha (waterhemp; [4]) was 85% and the pest or weed control at 125 g/ha (waterhemp; [5]) was 100%. The pest or weed control at 16 g/ha (waterhemp; [6]) was 70%, the “Plant response rating, Waterhemp_RES1” value [1, 3] was 60 and the “Plant response rating, Waterhemp_RES1” value [1, 4] was 75. For the same molecule, the “Plant response rating, Waterhemp_RES1” value [1, 5] was 100, the “Plant response rating, Waterhemp_RES1” value [1, 6] was 40 and the pest or weed control at 31 g/ha [2, 3] was 80%. It also gave a pest or weed control at 62 g/ha [2, 4] of 90%, a pest or weed control at 125 g/ha [2, 5] of 95% and a pest or weed control at 16 g/ha [2, 6] of 75%. For the same molecule, the pest or weed control at 31 g/ha (field bindweed; [3]) was 70%, the pest or weed control at 62 g/ha (field bindweed; [4]) was 80% and the pest or weed control at 125 g/ha (field bindweed; [5]) was 80%. The pest or weed control at 16 g/ha (field bindweed; [6]) was 60%.
